# Earlier results, collected in patent US20210361600A1, “METHODS FOR INDUCING CHONDROGENESIS” (THE SCRIPPS RESEARCH INSTITUTE, priority 2017, published 2021).
# Key:
# [1] = tested on: FLNA FC-1 fragment; settings: previously validated with BKA affinity probe; cited from earlier work
# [2] = tested on: CBFβ; settings: previously demonstrated; cited from earlier work
structure (smiles),measurement,setting,value
"O=C(O)c1ccccc1C(=O)Nc1ccc(-c2ccccc2)cc1 [KGN, kartogenin]",binding to FC-1 fragment of FLNA,[1],directly mediate the binding
same,nuclear localization of CBFβ,[2],increase the nuclear localization of CBFβ
